Assay results reported in patent publication US9878986B2, “Compounds for selective histone deacetylase inhibitors, and pharmaceutical composition comprising the same” (CHONG KUN DANG PHARMACEUTICAL CORP., priority 2013, dated 2018).

Assays:
HDAC 6 = target: T1, HDAC 6 (Homo sapiens, UniProt Q9UBN7); assay: Test of HDAC activities, HDAC6 (fluorimetric); type: biochemical; design: purchased Calbiochem 382180; details: samples at 0.1, 1, 10, 100, 1000 nM; 37° C. 60 minutes; fluorescence Ex 390, Em 460; read-out: HDAC inhibitory activities, HDAC6
T1 sequence (Q9UBN7 1-1215): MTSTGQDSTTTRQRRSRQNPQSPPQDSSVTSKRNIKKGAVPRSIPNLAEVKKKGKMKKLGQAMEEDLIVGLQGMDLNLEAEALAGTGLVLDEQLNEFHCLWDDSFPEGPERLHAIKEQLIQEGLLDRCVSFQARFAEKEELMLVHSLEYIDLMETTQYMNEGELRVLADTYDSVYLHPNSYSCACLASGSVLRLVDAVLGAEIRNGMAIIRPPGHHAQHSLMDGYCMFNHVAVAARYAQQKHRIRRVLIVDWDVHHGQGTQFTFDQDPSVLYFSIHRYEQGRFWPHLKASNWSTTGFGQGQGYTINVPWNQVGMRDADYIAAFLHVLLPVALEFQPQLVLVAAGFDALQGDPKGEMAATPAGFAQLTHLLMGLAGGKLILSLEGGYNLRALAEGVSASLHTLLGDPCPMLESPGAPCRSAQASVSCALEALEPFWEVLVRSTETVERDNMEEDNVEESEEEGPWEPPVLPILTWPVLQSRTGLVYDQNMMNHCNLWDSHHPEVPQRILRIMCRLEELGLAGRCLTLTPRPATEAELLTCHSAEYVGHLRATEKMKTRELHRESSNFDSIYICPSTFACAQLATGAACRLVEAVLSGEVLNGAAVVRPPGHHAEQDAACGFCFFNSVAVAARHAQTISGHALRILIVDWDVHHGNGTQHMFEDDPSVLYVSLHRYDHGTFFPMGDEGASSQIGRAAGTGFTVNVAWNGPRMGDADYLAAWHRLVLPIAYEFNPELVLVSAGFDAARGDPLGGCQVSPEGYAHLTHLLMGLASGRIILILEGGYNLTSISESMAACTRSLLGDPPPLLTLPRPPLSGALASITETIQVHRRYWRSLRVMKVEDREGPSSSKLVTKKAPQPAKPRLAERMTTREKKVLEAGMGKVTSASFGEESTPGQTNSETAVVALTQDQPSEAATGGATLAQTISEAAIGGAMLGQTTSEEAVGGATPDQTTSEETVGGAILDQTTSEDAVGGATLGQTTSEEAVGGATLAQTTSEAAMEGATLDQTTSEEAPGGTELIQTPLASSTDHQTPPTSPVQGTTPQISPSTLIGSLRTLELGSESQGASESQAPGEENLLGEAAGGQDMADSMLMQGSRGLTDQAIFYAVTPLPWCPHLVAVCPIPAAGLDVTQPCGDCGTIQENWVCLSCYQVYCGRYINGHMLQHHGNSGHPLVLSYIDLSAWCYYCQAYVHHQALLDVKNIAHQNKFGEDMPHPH
In short: (§1)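 HDAC1 tested at 100, 1000 and 10000 nM; recombinant human HDAC6 at 0.1, 1, 10, 100 and 1000 nM. Reaction 60 min at 37° C, then developer for 30 min at 37° C; fluorescence read at Ex 390/Em 460.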

HDAC1 = HDAC1 (Homo sapiens, UniProt Q13547); assay: Test of HDAC activities, HDAC1 Fluorimetric Drug Discovery Assay Kit; type: biochemical; design: purchased Enzolifesciences BML-AK511; details: samples at 100, 1000, 10000 nM; 37° C. 60 minutes; fluorescence Ex 390, Em 460; read-out: HDAC inhibitory activities, HDAC1
In short: as §1

Sequence of HDAC1 (Q13547 whole entry): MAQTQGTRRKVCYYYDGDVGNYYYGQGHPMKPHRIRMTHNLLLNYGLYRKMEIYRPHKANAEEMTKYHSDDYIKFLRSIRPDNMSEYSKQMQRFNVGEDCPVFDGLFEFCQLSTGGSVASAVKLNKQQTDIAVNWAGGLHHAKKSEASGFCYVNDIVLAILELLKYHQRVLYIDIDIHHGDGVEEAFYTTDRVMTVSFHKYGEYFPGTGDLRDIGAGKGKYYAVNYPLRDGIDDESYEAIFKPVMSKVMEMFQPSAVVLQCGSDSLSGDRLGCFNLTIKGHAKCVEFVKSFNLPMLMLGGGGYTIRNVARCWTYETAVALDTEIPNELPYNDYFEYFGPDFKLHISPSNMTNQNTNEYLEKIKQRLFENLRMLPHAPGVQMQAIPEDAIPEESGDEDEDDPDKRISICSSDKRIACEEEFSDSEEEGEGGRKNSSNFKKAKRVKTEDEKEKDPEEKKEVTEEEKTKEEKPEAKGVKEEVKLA

Row | SMILES | IC50 (HDAC 6) | IC50 (HDAC1)
1 | COc1cccc(N2CCN(C(=O)N(Cc3ccc(C(=O)NO)cc3)c3cccc(C(F)(F)F)c3)CC2)c1 [Compound 684, N-(4-(hydroxycarbamoyl)benzyl)-4-(3-methoxyphenyl)-N-(3-(trifluoromethyl)phenyl)piperazine-1-carboxamide] | 19 nM | 4980 nM
2 | O=C(NO)c1ccc(CN(C(=O)N2CCOCC2)c2cccc(-c3ccc4c(c3)OCO4)c2)c(F)c1 [Compound 511, N-(3-(benzo[d][1,3]dioxol-5-yl)phenyl)-N-(2-fluoro-4-(hydroxycarbamoyl)benzyl)morpholine-4-carboxamide] | 12 nM | 636 nM
3 | CC(=O)N1CC=C(c2cccc(N(Cc3ccc(C(=O)NO)cc3)C(=O)N3CCOCC3)c2)CC1 [Compound 419, N-(3-(1-acetyl-1,2,3,6-tetrahydropyridin-4-yl)phenyl)-N-(4-(hydroxycarbamoyl)benzyl) morpholine-4-carboxamide] | 5 nM | 460 nM
4 | O=C(NO)c1ccc(CN(C(=O)N2CC(F)(F)C2)c2ccc(C(F)(F)F)cc2)c(F)c1 [Compound 578, 3,3-difluoro-N-(2-fluoro-4-(hydroxycarbamoyl)benzyl)-N-(4-(trifluoromethyl)phenyl) azetidine-1-carboxamide] | 9.3 nM | 1250 nM
5 | CC(C)(O)CN1CCC(c2cccc(N(Cc3ccc(C(=O)NO)cc3)C(=O)N3CCOCC3)c2)CC1 [Compound 517, N-(3-(1-(2-hydroxy-2-methylpropyl)piperidine-4-yl)phenyl)-N-(4-(hydroxycarbamoyl)benzyl)morpholine-4-carboxamide] | 28 nM | 427 nM
6 | O=C(NO)c1ccc(CN(C(=O)N2CCOCC2)c2cccc(F)c2F)cc1 [Compound 791, N-(2,3-difluorophenyl)-N-(4-(hydroxycarbamoyl)benzyl)morpholine-4-carboxamide] | 1.1 nM | 585 nM
7 | O=C(NO)c1ccc(CN(C(=O)N2CCC[C@@H]2CO)c2cccc(C(F)(F)F)c2)cc1 [Compound 497, (R)—N-(4-(hydroxycarbamoyl)benzyl)-2-(hydroxymethyl)-N-(3-(trifluoromethyl)phenyl)pyrrolidine-1-carboxamide] | 2 nM | 936 nM
8 | CC1CCN(C(=O)N(Cc2ccc(C(=O)NO)cc2)c2ccc(Cl)c(C(F)(F)F)c2)CC1 [Compound 390, N-(4-chloro-3-(trifluoromethyl)phenyl)-N-(4-(hydroxycarbamoyl)benzyl)-4-methylpiperidine-1-carboxamide] | 20 nM | 6220 nM
9 | O=C(NO)c1ccc(CN(C(=O)N2CCOCC2)c2nc(-c3ccc(Cl)cc3)cs2)cc1 [Compound 371, N-(4-(4-chlorophenyl)thiazol-2-yl)-N-(4-(hydroxycarbamoyl)benzyl)morpholine-4-carboxamide] | 20 nM | 1330 nM
10 | CC1CN(C(=O)N(Cc2ccc(C(=O)NO)cc2)c2cccc(C(F)(F)F)c2)CC(C)O1 (centres unmarked) [Compound 386, N-(4-(hydroxycarbamoyl)benzyl)-2,6-dimethyl-N-(3-(trifluoromethyl)phenyl)morpholine-4-carboxamide] | 6 nM | 4040 nM
11 | O=C(NO)c1ccc(CN(C(=O)N2CCC(O)CC2)c2cccc(Br)c2)c(F)c1 [Compound 488, N-(3-bromophenyl)-N-(2-fluoro-4-(hydroxycarbamoyl)benzyl)-4-hydroxypiperidine-1-carboxamide] | 0.5 nM | 1170 nM
12 | O=C(NO)c1ccc(CN(C(=O)N2CCOCC2)c2cccc(C3CCOCC3)c2)cc1 [Compound 483, N-(4-(hydroxycarbamoyl)benzyl)-N-(3-(tetrahydro-2H-pyran-4-yl)phenyl)morpholine-4-carboxamide] | 7 nM | 840 nM
13 | O=C(NO)c1ccc(CN(C(=O)N2CCOCC2)c2ccccc2)cc1 [Compound 279, N-(4-(hydroxycarbamoyl)benzyl)-N-phenylmorpholine-4-carboxamide] | 1 nM | 292 nM
14 | Cc1ccc(N(Cc2ccc(C(=O)NO)cc2)C(=O)N2CCN(c3ccc(F)cc3)CC2)c(F)c1 [Compound 455, N-(2-fluoro-4-methylphenyl)-4-(4-fluorophenyl)-N-(4-(hydroxycarbamoyl)benzyl)piperazine-1-carboxamide] | 6 nM | 1980 nM
15 | O=C(NO)c1ccc(CN(C(=O)N2CCN(C(=O)C3CC3)CC2)c2ccccn2)cc1 [Compound 451, 4-(cyclopropanecarbonyl)-N-(4-(hydroxycarbamoyl)benzyl)-N-(pyridin-2-yl)piperazine-1-carboxamide] | 5 nM | 4810 nM
16 | O=C(NO)c1ccc(CN(C(=O)N2CCN(CC3(O)CCOCC3)CC2)c2cccc(C(F)(F)F)c2)cc1 [Compound 651, 4-((4-hydroxy-tetrahydro-2H-pyran-4-yl)methyl)-N-(4-(hydroxycarbamoyl)benzyl)-N-(3-(trifluoromethyl)phenyl)piperazine-1-carboxamide] | 4.6 nM | 765 nM
17 | O=C(NO)c1ccc(CN(C(=O)N2CCOCC2)c2ccc(F)c(Cl)c2)cc1 [Compound 458, N-(3-chloro-4-fluorophenyl)-N-(4-(hydroxycarbamoyl)benzyl)morpholine-4-carboxamide] | 1 nM | 474 nM
18 | O=C(NO)c1ccc(CN(C(=O)N2CCN(CCO)CC2)c2cccc(-c3ccc4c(c3)OCO4)c2)cc1 [Compound 467, N-(3-(benzo[d][1,3]dioxol-5-yl)phenyl)-N-(4-(hydroxycarbamoyl)benzyl)-4-(2-hydroxyethyl)piperazine-1-carboxamide] | 1 nM | 240 nM
19 | O=C(NO)c1ccc(CN(C(=O)N2CCOCC2)c2cccc(C3=CCOCC3)c2)cc1 [Compound 403, N-(3-(3,6-dihydro-2H-pyran-4-yl)phenyl)-N-(4-(hydroxycarbamoyl)benzyl)morpholine-4-carboxamide] | 1 nM | 453 nM
20 | CC1CCN(C(=O)N(Cc2ccc(C(=O)NO)cc2)c2ccc(F)c(Cl)c2)CC1 [Compound 457, N-(3-chloro-4-fluorophenyl)-N-(4-(hydroxycarbamoyl)benzyl)-4-methylpiperidine-1-carboxamide] | 5 nM | 3360 nM
21 | O=C(NO)c1ccc(CN(C(=O)N2CC[C@H](F)C2)c2ccc(C(F)(F)F)cc2)cc1 [Compound 521, (S)-3-fluoro-N-(4-(hydroxycarbamoyl)benzyl)-N-(4-(trifluoromethyl)phenyl)pyrrolidine-1-carboxamide] | 10 nM | 261 nM
22 | O=C(NO)c1ccc(CN(C(=O)N2CCOCC2)c2cccc(OC(F)(F)F)c2)cc1 [Compound 773, N-(4-(hydroxycarbamoyl)benzyl)-N-(3-(trifluoromethoxy)phenyl)morpholine-4-carboxamide] | 2.8 nM | 312 nM
23 | CC(=O)N1CCC(c2cccc(N(Cc3ccc(C(=O)NO)cc3)C(=O)N3CCOCC3)c2)CC1 [Compound 490, N-(3-(1-acetylpiperidin-4-yl)phenyl)-N-(4-(hydroxycarbamoyl)benzyl)morpholine-4-carboxamide] | 19 nM | 703 nM
24 | CN1CCN(C(=O)N(Cc2ccc(C(=O)NO)cc2)c2cccc(Br)c2)CC1 [Compound 256, N-(3-bromophenyl)-N-(4-(hydroxycarbamoyl)benzyl)-4-methylpiperazine-1-carboxamide] | 1 nM | 148 nM
25 | O=C(NO)c1ccc(CN(C(=O)N2CCN(c3ccc(F)cc3)CC2)c2ccccn2)cc1 [Compound 357, 4-(4-fluorophenyl)-N-(4-(hydroxycarbamoyl)benzyl)-N-(pyridin-2-yl)piperazine-1-carboxamide] | 3 nM | 3280 nM
